From US6916802B2, “Amino ceramide-like compounds and therapeutic methods of use” (Genzyme Corporation, priority 2002, dated 2005)

Key:
MDCK cells [1] = assay: GlcCer, ceramide and diradylglycerol content of treated MDCK cells (Specific Example 2); assay type: cell-based, canine
Method: Cell culture and lipid extraction. One half million of MDCK cells were seeded into 10 cm style dish containing 8 ml serum free DMEM supplemented medium. Shayman, J. A. et al., J. Biol. Chem., 265:12135-12138 (1990). […] The GlcCer synthase inhibitors were added into the medium as a one to one complex with delipidated BSA. Abe, A. et al., J. Lipid. Res., 36:611-621 (1995); Abe, A. et al., Biochim. Biophys. Acta, 1299:331-341 (1996). The cells were incubated for 24 h or 48 h with the inhibitors. After the incubation, the cells were washed twice with 8 ml of cold PBS and fixed with 2 ml of cold methanol. The fixed cells were scraped and transferred to a glass tube. Another one ml of methanol was used to recover the remaining cells in the dish.
Three ml of chloroform was added to the tube and briefly sonicated using a water bath type sonicator. After centrifugation at 800 g for 5 min, the supernatant was transferred into another glass tube. The residues were reextracted with chloroform/methanol (1/1). After the centrifugation, the resultant supernatant was combined with the first one. The residues were air-dried and kept for protein analysis. Adding 0.9% NaCl to the supematant combined, the ratio of chloroform/methanol/aqueous was adjusted to 1/1/1. After centrifugation 800 g for 5 min, the upper layer was discarded. Methanol/water (1/1) with the same amount of volume of the lower layer was used to wash. The resultant lower layer was transferred into a small glass tube and dried down under a stream of nitrogen gas. A part of the lipid was used for lipid phosphate determination. Ames, B. N., Methods Enzymol., 8:115-118 (1966). The remainder was analyzed using HPTLC (Merck).
In order to determine whether inhibition of 1-O-acylceramide synthase was the basis for inhibitor mediated ceramide accumulation, the ceramide and diradylglycerol levels of MDCK cells treated D-threo-P4, D-threo-3′,4′-ethylenedioxy-P4, and D-threo-(4′-hydroxy)-P4 were measured (Table 9). MDCK cells (5×10^5) were seeded into a 10 cm dish and incubated for 24 h. Following the incubation, the cells were treated for 24 or 48 h with or without P4 or the phenyl substitute homologues. Both ceramide and diradylglycerol contents were determined by the method of Preis, J. et al., J. Biol. Chem., 261:8597-8600 (1986). GlcCer content was measured densitometrically by a video camera and use of NIH image 1.49. Significant increases in both ceramide and diradylglycerol occurred only in cells treated with inhibitor concentrations in excess of 1 mM. This was approximately 30-fold lower than the concentration required for inhibition of the 1-O-acylceramide synthase assayed in the cellular homogenates. […] Abe, A. et al., Biochim. Biophys. Acta, 1299:331-341 (1996).
(§1) Effects of D-threo-P4, D-threo4′-hydroxy-P4 and D-threo-3,4′-ethylenedioxy-P4 on GlcCer Synthesis and Cell Growth. To confirm the cellular specificity of D-threo-3′,4′-ethylenedioxy-P4 and D-threo-(4′-hydroxy)-P4 as compared to D-threo-P4, MDCK cells were treated with different concentrations of the inhibitors. The total protein amount in each sample was determined by the BCA method. In GlcCer analysis, lipid samples and standard lipids were applied to the same HPTLC plate pre-treated with borate and developed in a solvent consisting of C/M/W (63/24/4). The level of GlcCer was estimated from a standard curve obtained using a computerized image scanner. The values were normalized on the basis of the phospholipid content. The results are shown in FIG. 7, wherein each bar is the average values from three dishes, with error bars corresponding to one standard deviation. In the control, the total protein and GlcCer were 414±47.4 μg/dish and 24.3±1.97 ng/nmol phosphate, respectively.

[2] = target: T1, 1-O-acylceramide synthase (Canis lupus familiaris, UniProt Q6XPZ3); assay: 1-O-acylceramide synthase (transacylase) assay; assay type: biochemical; conditions: D-threo enantiomers, FIG. 12
T1 construct: the 1-O-acylceramide synthase assayed in the cellular homogenates; endogenous in cells; host or cells: cellular homogenates (MDCK, from context)
T1 sequence (Q6XPZ3 32-408): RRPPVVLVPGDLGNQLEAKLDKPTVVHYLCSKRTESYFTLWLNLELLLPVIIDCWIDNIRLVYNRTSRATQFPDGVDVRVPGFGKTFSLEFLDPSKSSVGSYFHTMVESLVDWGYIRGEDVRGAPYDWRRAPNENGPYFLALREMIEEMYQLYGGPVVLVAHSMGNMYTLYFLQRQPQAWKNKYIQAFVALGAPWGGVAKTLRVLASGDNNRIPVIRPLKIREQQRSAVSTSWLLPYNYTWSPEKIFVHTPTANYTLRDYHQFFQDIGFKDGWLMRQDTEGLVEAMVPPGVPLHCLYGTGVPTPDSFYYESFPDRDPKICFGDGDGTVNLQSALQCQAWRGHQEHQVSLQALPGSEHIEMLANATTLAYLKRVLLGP
From the text: Distinguishing Between Inhibition of GlcCer Synthase and 1-O-acylceramide Synthase Inhibition. […] An alternative pathway for ceramide metabolism was subsequently identified, the acylation of ceramide at the 1-hydroxyl position, which was blocked by both threo and erythro diastereomers of PDMP. The specificities of D-threo-P4, D-threo-3′,4′-ethylenedioxy-P4, and D-threo-(4′-hydroxy)-P4 for GlcCer synthase were studied by assaying the transacylase.

GlcCer synthase = target: T2, GlcCer synthase (Canis lupus familiaris, UniProt A0A8I3MXG6); assay: Glycosylceramide synthase activity, MDCK cell homogenate (Specific Example 2); assay type: biochemical, canine
T2 sequence (A0A8I3MXG6 1-394): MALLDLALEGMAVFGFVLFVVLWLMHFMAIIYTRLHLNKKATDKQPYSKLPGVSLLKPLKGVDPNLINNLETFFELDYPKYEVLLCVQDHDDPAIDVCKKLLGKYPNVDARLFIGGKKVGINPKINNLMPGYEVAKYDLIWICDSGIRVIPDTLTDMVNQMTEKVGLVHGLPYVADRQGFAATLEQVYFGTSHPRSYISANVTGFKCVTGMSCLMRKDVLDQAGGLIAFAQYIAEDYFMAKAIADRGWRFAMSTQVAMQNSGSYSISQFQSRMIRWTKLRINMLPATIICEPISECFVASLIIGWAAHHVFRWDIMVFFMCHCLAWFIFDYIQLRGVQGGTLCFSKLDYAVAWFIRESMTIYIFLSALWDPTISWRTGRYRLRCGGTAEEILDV
Method: Glycosylceramide synthase activity. The enzyme activity was measured by the method previously described in Skukla, G. et al., Biochim. Biophys. Acta, 1083:101-108 (1991). MDCK cell homogenate (120 μg of protein) was incubated with uridinediphosphate [^3H]glucose (100,000 cpm) and liposomes consisting of 85 μg octanoylsphingosine, 570 μg dioleoyphosphatidylcholine and 100 μg sodium sulfatide in 200 μl of reaction mixture and kept for 1 h at 37° C. P4 and P4 derivatives dissolved in dimethyl sulfoxide were dispersed into the reaction mixture after adding liposomes. The final concentration of dimethyl sulfoxide was kept 1% under which the enzyme activity was not at all inhibited.

MDCK cells [3] = assay: Cell growth of treated MDCK cells, total protein (Specific Example 2); assay type: cell-based, canine
Method: Cell culture and lipid extraction. One half million of MDCK cells were seeded into 10 cm style dish containing 8 ml serum free DMEM supplemented medium. Shayman, J. A. et al., J. Biol. Chem., 265:12135-12138 (1990). After 24 h the medium was replaced with 8 ml of the medium containing 0, 11.8, 118 or 1180 nM D-t-P4, D-t-3′,4′-ethylenedioxy-P4 or D-4′-hydroxy)-P4. The GlcCer synthase inhibitors were added into the medium as a one to one complex with delipidated BSA. Abe, A. et al., J. Lipid. Res., 36:611-621 (1995); Abe, A. et al., Biochim. Biophys. Acta, 1299:331-341 (1996). The cells were incubated for 24 h or 48 h with the inhibitors. After the incubation, the cells were washed twice with 8 ml of cold PBS and fixed with 2 ml of cold methanol. The fixed cells were scraped and transferred to a glass tube. Another one ml of methanol was used to recover the remaining cells in the dish.
as §1

[4] = tested on: GlcCer synthase of rabbit liver microsomes; assay: GlcCer synthase of rabbit liver microsomes; assay type: biochemical
[5] = tested on: GlcCer synthase of MDCK cell homogenates; assay: Inhibition of ceramide glucosyltransferase (GlcCer synthase) of MDCK cell homogenates; assay type: biochemical, canine
How it was run: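 MDCK cell sonicate (~0.2 mg protein) incubated with octanoyl sphingosine (85 μg, in dioleoylphosphatidylcholine/sulfatide liposomes) and UDP-[^3H]glucose in a thermostatted ultrasonic bath. Aromatic inhibitors were dried into the tube; aliphatic inhibitors were incorporated in the substrate liposomes.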

Compound	GlcCer lost from the cells (depletion) (MDCK cells [1]; 11.3 nM inhibitor)	Ceramide (pmol/nmol phospholipids) (MDCK cells [1]; 11.3 nM, 24 h)	Diradylglycerol (pmol/nmol phospholipids) (MDCK cells [1]; 11.3 nM, 24 h)	Ceramide (pmol/nmol phospholipids) (MDCK cells [1]; 11.3 nM, 48 h)	Diradylglycerol (pmol/nmol phospholipids) (MDCK cells [1]; 11.3 nM, 48 h)	Ceramide (pmol/nmol phospholipids) (MDCK cells [1]; 113 nM, 24 h)	Diradylglycerol (pmol/nmol phospholipids) (MDCK cells [1]; 113 nM, 24 h)	Ceramide (pmol/nmol phospholipids) (MDCK cells [1]; 113 nM, 48 h)	Diradylglycerol (pmol/nmol phospholipids) (MDCK cells [1]; 113 nM, 48 h)	level of ceramide versus untreated cells (MDCK cells [1]; 1130 nM)	Ceramide (pmol/nmol phospholipids) (MDCK cells [1]; 1130 nM, 24 h)	Diradylglycerol (pmol/nmol phospholipids) (MDCK cells [1]; 1130 nM, 24 h)	Ceramide (pmol/nmol phospholipids) (MDCK cells [1]; 1130 nM, 48 h)	Diradylglycerol (pmol/nmol phospholipids) (MDCK cells [1]; 1130 nM, 48 h)	activity in blocking 1-O-acylceramide synthase [2]	potency as GlcCer synthase inhibitor, in words (GlcCer synthase)	total protein versus untreated cells (MDCK cells [3]; 1130 nM)	total protein content versus untreated cells (MDCK cells [3]; 11.3 or 113 nM)	inhibitory activity against GlcCer synthase of rabbit liver microsomes [4]	activity against GlcCer synthase, in words [5]
CCCCCCCCCCCCCCCC(=O)N[C@H](CN1CCCC1)[C@H](O)c1ccc(O)cc1 [D-threo-4′-hydroxy-P4, D-t-4′-hydroxy-1-phenyl-2-palmitoylamino-3-pyrrolidino-1-propanol]	Approximately 66%	4.29 ± 0.71 pmol/nmol phospholipids	30.9 ± 2.01 pmol/nmol phospholipids	6.70 ± 0.29 pmol/nmol phospholipids	38.4 ± 1.44 pmol/nmol phospholipids	5.09 ± 0.95 pmol/nmol phospholipids	31.5 ± 3.84 pmol/nmol phospholipids	7.47 ± 0.29 pmol/nmol phospholipids	41.5 ± 0.66 pmol/nmol phospholipids	two times higher	7.38 ± 0.13 pmol/nmol phospholipids	38.5 ± 3.84 pmol/nmol phospholipids	13.4 ± 1.03 pmol/nmol phospholipids	47.2 ± 2.51 pmol/nmol phospholipids	comparable activity	twice as active as the p-methoxy compound	significant decrease	little difference	–	–
CCCCCCCCCCCCCCCC(=O)NC(CN1CCN(c2ccccc2)CC1)C(O)c1ccccc1 (mixture of isomers) [BML-112]	–	–	–	–	–	–	–	–	–	–	–	–	–	–	–	–	–	–	no inhibitory activity	little or no activity
